Data from US20140039044A1, “Hydroxylated Polymethoxyflavone Compositions” (WLLGEN, INC., priority 2006, published 2014).
Where two headings read alike, the source gives them in different places.

What was measured:
Assay type in all cases: cell-based, human
AGS cells [1] = assay: Cell survival assay (antiproliferative IC50); conditions: AGS cells, read-out: Antiproliferative IC50
Description: (§1) Human colon carcinoma COLO205 and HT-29 cell lines (American Type Culture Collection (ATTC), Manassas, Va.) and the leukemia cell line HL-60 were maintained at 37° C. in 5% CO2 air in RPMI 1640 medium supplemented with 10% heat-inactivated fetal bovine serum (Gibco BRL, Grand Island, N.Y.), 100 units/mL penicillin, 100 μg/mL streptomycin and 2 mM 1-glutamine. The human gastric carcinoma AGS cell line (CCRC 60102), obtained from the Food Industry Research and Development Institute (Hsinchu, Taiwan), was maintained as described above, except that DMEM/F 12 was used as the medium rather than the RPMI 1640 medium. The human breast carcinoma MCF-7 cell line MCF-7 (ATTC) was cultured in RPMI 1640 medium supplemented with 5% fetal calf serum at 37° C. in a humidified atmosphere of 5% CO2 in air. The mouse macrophage cell line RAW 264.7 was maintained in RPMI 1640 supplemented with 100 U/ml penicillin, 100 μg/ml streptomycin, and 10% heat-inactivated fetal calf serum.
(§2) Cancer cells (2×10^5) were plated in 12-well Petri dishes. The next day, the medium was changed and treated with different concentration of the test compounds or compositions for 24 h. Where individual compounds were to be tested, stock solutions of the compound was prepared to contain 200 μM of the individual hydroxylated or non-hydroxylated PMF in dimethylsulfoxide (DMSO). Control cells were treated with DMSO to a final concentration of 0.05% (v/v). Depending on the objective of the particular experiment, cells were treating with test compound or composition for 1, 3 or 6 days. At the end of incubation, cells were harvested for cell count using a hemocytometer and measuring the cellular total nucleic acid content with the CyQUANT Cell Proliferation Assay Kit (Molecular Probes).
(§3) 1 N PMF and 6 N PMF compositions containing hydroxylated PMFs, prepared as described in Section 8.3 above, 70% PMF OPE and 5,6,7,8,3′,4′-hexamethoxyflavone (nobiletin) were tested for antiproliferative activity and apoptosis-inducing activity in HL-60, AGS and COLO205 cells as described in Section 8.4 above. Antiproliferative and apoptosis-inducing activities were derived as IC50 values and AC50, values, respectively, where AC50 is the concentration required for 50% apoptosis.
(§4) The PMF compounds were assayed in vitro for cell growth inhibition and for their ability to induce apoptosis in various human cancer cells, including HL-60, AGS, COLO 205, and HT-29 cells, using methods described in Section 8.4 above. Antiproliferative (IC50) and apoptosis-inducing activity (AC50) of PMFs in the HL-60, AGS, COLO 205, and HT-29 cells are reported in Table 9, where *P<0.05, **P<0.01 and ***P<0.001 indicate statistically significant differences from the control group.

COLO205 cells [2] = assay: Cell survival assay (antiproliferative IC50); conditions: COLO205 cells, read-out: Antiproliferative IC50
Description: as §1, §2, §3, §4

HL-60 cells = assay: Cell survival assay (antiproliferative IC50); conditions: HL-60 cells, read-out: Antiproliferative IC50
Description: as §1, §2, §3, §4

HT-29 cells = assay: Cell survival assay (antiproliferative IC50)
Description: as §1, §2, §4

AGS cells [3] = assay: Cell cycle distribution by flow cytometry; conditions: 24 h, Table 11
Description: (§5) The human cancer cells (2×10^5) were cultured in 60-mm Petri dishes and incubated for 24 h. After treated with test compounds for 24 h, the cells were then harvested, washed with PBS resuspended in 200 μL of PBS, and fixed in 800 μL of iced 100% ethanol at −20° C. After being left to stand overnight, the cell pellets were collected by centrifugation, resuspended in 1 mL of hypotonic buffer (0.5% Triton X-100 in PBS and 0.5 μg/mL RNase) and incubated at 37° C. for 30 min. Next, 1 mL of propidium iodide solution (50 μg/mL) was added, and the mixture was allowed to stand on ice for 30 min. Fluorescence emitted from the propidium iodide-DNA complex was quantitated after excitation of the fluorescent dye by FACScan cytometry (Becton Dickinson, San Jose, Calif.).
(§6) The effects of the hydrolyzed PMF-enriched compositions, nobiletin and 70% PMF OPE on cell cycle distribution were studied, following the procedures described in Section 8.4. Results for cell cycle distribution in HL-60 cells, COLO205 cells and AGS cells are provided in Table 5, Table 6 and Table 7, respectively. […] In HL-60 cells, G2/M arrest predominated in cells treated with 6N PMF concentrations ≧5 μM and with 1N PMF concentrations ≧25 μM.
(§7) Compounds A-K were evaluated in terms of their effects in arresting cell cycle progression by observing cell cycle phase distribution in cells treated with the compounds. Cells were treated with 5, 10, 25, 50, and 100 μM of one of compound A-K or DMSO (control) for 24 h and subjected to flow cytometric analysis after staining their DNA, as described above.
(§8) Similar cell cycle phase distribution studies were performed in AGS, COLO205, and HT-29 cells in response to individual PMFs, with results reported in Tables 11, 12 and 13, respectively.

COLO205 cells [4] = assay: Cell cycle distribution by flow cytometry; conditions: COLO205 cells, 24 h, Table 12
Description: as §5, §6, §7, §8

| SMILES | Cell Cycle Distribution G0/G1 (AGS cells [3]; 5 μM) | Cell Cycle Distribution G2/M (AGS cells [3]; 5 μM) | Cell Cycle Distribution S (AGS cells [3]; 5 μM) | Cell Cycle Distribution G0/G1 (AGS cells [3]; 10 μM) | Cell Cycle Distribution G2/M (AGS cells [3]; 10 μM) | Cell Cycle Distribution S (AGS cells [3]; 10 μM) | Cell Cycle Distribution G0/G1 (AGS cells [3]; 25 μM) | Cell Cycle Distribution G2/M (AGS cells [3]; 25 μM) | Cell Cycle Distribution S (AGS cells [3]; 25 μM) | Cell Cycle Distribution G0/G1 (AGS cells [3]; 50 μM) | Cell Cycle Distribution G2/M (AGS cells [3]; 50 μM) | Cell Cycle Distribution S (AGS cells [3]; 50 μM) | Cell Cycle Distribution G0/G1 (AGS cells [3]; 100 μM) | Cell Cycle Distribution G2/M (AGS cells [3]; 100 μM) | Cell Cycle Distribution S (AGS cells [3]; 100 μM) | Cell Cycle Distribution G0/G1 (COLO205 cells [4]; 5 μM) | Cell Cycle Distribution G2/M (COLO205 cells [4]; 5 μM) | Cell Cycle Distribution S (COLO205 cells [4]; 5 μM) | Cell Cycle Distribution G0/G1 (COLO205 cells [4]; 10 μM) | Cell Cycle Distribution G2/M (COLO205 cells [4]; 10 μM) | also measured |
| --- | --- | --- | --- | --- | --- | --- | --- | --- | --- | --- | --- | --- | --- | --- | --- | --- | --- | --- | --- | --- | --- |
| COc1ccc(-c2oc3c(OC)c(OC)c(OC)c(OC)c3c(=O)c2OC)cc1OC [D, 3,5,6,7,8,3,4-heptamethoxyflavone, reference compound] | 37.6 ± 0.92 | 0.4 ± 0.57 | 62.4 ± 0.85 | 44.2 ± 0.14 | 1.3 ± 0.42 | 55.2 ± 0.42 | 46.6 ± 0.35 | 4.7 ± 0.14 | 48.8 ± 0.42 | 48.0 ± 0.14 | 6.9 ± 0.42 | 45.7 ± 0.35 | 63.2 ± 0.78 | 4.0 ± 0.14 | 33.0 ± 0.49 | 60.81 ± 0.62 | 0.04 ± 0.05 | 39.16 ± 0.67 | 60.58 ± 0.57 | 0.40 ± 0.04 | IC50 (AGS cells [1]): > 100 µM; IC50 (COLO205 cells [2]): 62.5 ± 1.81 µM; IC50 (HL-60 cells): 54.4 ± 0.9 µM; IC50 (HT-29 cells): > 100 µM; Cell Cycle Distribution S (COLO205 cells [4]; 10 μM): 39.02 ± 0.61; Cell Cycle Distribution G0/G1 (COLO205 cells [4]; 25 μM): 61.91 ± 0.35; Cell Cycle Distribution G2/M (COLO205 cells [4]; 25 μM): 9.28 ± 0.59; Cell Cycle Distribution S (COLO205 cells [4]; 25 μM): 28.82 ± 0.23; Cell Cycle Distribution G0/G1 (COLO205 cells [4]; 50 μM): 68.87 ± 1.53; Cell Cycle Distribution G2/M (COLO205 cells [4]; 50 μM): 6.10 ± 2.64; Cell Cycle Distribution S (COLO205 cells [4]; 50 μM): 25.03 ± 1.12; Cell Cycle Distribution G0/G1 (COLO205 cells [4]; 100 μM): 75.17 ± 0.05; Cell Cycle Distribution G2/M (COLO205 cells [4]; 100 μM): 5.72 ± 0.64; Cell Cycle Distribution S (COLO205 cells [4]; 100 μM): 19.12 ± 0.69 |
| COc1cc(-c2cc(=O)c3c(O)c(OC)c(OC)c(OC)c3o2)cc(OC)c1OC [E, 5-hydroxy-6,7,8,3′,4′,5′-hexamethoxyflavone] | 55.70 ± 0.14 | 15.88 ± 0.89 | 28.42 ± 0.75 | 56.96 ± 3.14 | 16.00 ± 0.55 | 27.05 ± 2.60 | 56.32 ± 2.62 | 14.40 ± 2.38 | 29.25 ± 0.18 | 54.53 ± 0.30 | 15.69 ± 1.41 | 29.79 ± 1.10 | 55.68 ± 0.46 | 13.51 ± 0.17 | 30.82 ± 0.29 | 67.66 ± 0.19 | 8.75 ± 0.17 | 23.60 ± 0.03 | 67.48 ± 0.59 | 8.29 ± 0.48 | IC50 (AGS cells [1]; Homo sapiens): > 100 µM; IC50 (COLO205 cells [2]; Homo sapiens, COLO 205): > 100 µM; IC50 (HL-60 cells; Homo sapiens): > 100 µM; IC50 (HT-29 cells; Homo sapiens): > 100 µM; Cell Cycle Distribution S (COLO205 cells [4]; 10 μM): 24.24 ± 0.11; Cell Cycle Distribution G0/G1 (COLO205 cells [4]; 25 μM): 67.40 ± 0.49; Cell Cycle Distribution G2/M (COLO205 cells [4]; 25 μM): 7.59 ± 1.18; Cell Cycle Distribution S (COLO205 cells [4]; 25 μM): 25.02 ± 0.70; Cell Cycle Distribution G0/G1 (COLO205 cells [4]; 50 μM): 69.49 ± 2.62; Cell Cycle Distribution G2/M (COLO205 cells [4]; 50 μM): 6.59 ± 0.82; Cell Cycle Distribution S (COLO205 cells [4]; 50 μM): 23.93 ± 1.80; Cell Cycle Distribution G0/G1 (COLO205 cells [4]; 100 μM): 69.99 ± 0.89; Cell Cycle Distribution G2/M (COLO205 cells [4]; 100 μM): 5.52 ± 0.90; Cell Cycle Distribution S (COLO205 cells [4]; 100 μM): 24.50 ± 0.00 |
| COc1cc(-c2cc(=O)c3c(OC)c(OC)c(OC)c(OC)c3o2)cc(OC)c1OC [F, 5,6,7,8,3′,4′,5′-heptamethoxyflavone, reference compound] | 58.22 ± 1.10 | 14.76 ± 0.94 | 27.02 ± 0.17 | 62.41 ± 6.13 | 14.56 ± 0.58 | 23.04 ± 5.55 | 62.24 ± 0.71 | 15.34 ± 1.30 | 22.57 ± 2.21 | 65.87 ± 0.93 | 13.05 ± 0.98 | 21.08 ± 1.90 | 64.22 ± 5.56 | 13.92 ± 1.06 | 21.86 ± 4.50 | 68.30 ± 1.36 | 8.71 ± 0.55 | 23.00 ± 0.80 | 71.96 ± 0.24 | 8.38 ± 0.43 | IC50 (AGS cells [1]; Homo sapiens): > 100 µM; IC50 (COLO205 cells [2]; Homo sapiens, COLO 205): 92.6 ± 15 µM; IC50 (HL-60 cells; Homo sapiens): 47 ± 4 µM; IC50 (HT-29 cells; Homo sapiens): 96.4 ± 8.66 µM; Cell Cycle Distribution S (COLO205 cells [4]; 10 μM): 19.67 ± 0.67; Cell Cycle Distribution G0/G1 (COLO205 cells [4]; 25 μM): 72.22 ± 0.54; Cell Cycle Distribution G2/M (COLO205 cells [4]; 25 μM): 9.80 ± 0.20; Cell Cycle Distribution S (COLO205 cells [4]; 25 μM): 17.98 ± 0.74; Cell Cycle Distribution G0/G1 (COLO205 cells [4]; 50 μM): 76.39 ± 0.85; Cell Cycle Distribution G2/M (COLO205 cells [4]; 50 μM): 8.02 ± 0.50; Cell Cycle Distribution S (COLO205 cells [4]; 50 μM): 15.60 ± 1.35; Cell Cycle Distribution G0/G1 (COLO205 cells [4]; 100 μM): 78.64 ± 0.34; Cell Cycle Distribution G2/M (COLO205 cells [4]; 100 μM): 8.65 ± 0.19; Cell Cycle Distribution S (COLO205 cells [4]; 100 μM): 12.71 ± 0.52 |
